Data published in patent publication US20070145619A1, “Processes for producing microencapsulated delivery vehicles” (Kimberly-Clark Worldwide, Inc., priority 2005, published 2007).
Read-outs that look alike come from different tables or passages of the source.

Assays:
[1] = particle size 149-355 micrometers, compared with four other size ranges; 35 wt % in mineral oil added to 7.0 grams de-ionized water; FIG. 3
Experimental: In this example, samples incorporating various size ranges of anhydrous calcium chloride suspended in mineral oil at 35 wt % were evaluated for their ability to generate heat upon introduction into water.
The five size ranges of anhydrous calcium chloride evaluated were: (1) less than 149 microns; (2) 149-355 microns; (3) 710-1190 microns; (4) 1190-2000 microns; and (5) 2000-4000 microns. The samples of anhydrous calcium chloride (Dow Chemical, Midland, Mich.) were dispersed in mineral oil (available as Drakeol 7 LT NF from Penreco, Dickinson, Tex.). The as received anhydrous calcium chloride were screened dry using a Gilson Sonic Sieve (Gilson Company, Inc. Columbus, Ohio) to create two sizes, a 1190-2000 micron size and a 2000-4000 micron size. These powders were then suspended at 35 wt % in mineral oil to form a slurry using a cowles mixing blade. To achieve the smaller size distributions, the anhydrous calcium chloride powder required further processing. […]
All five samples were then individually added to 7.0 grams de-ionized water and the resulting temperature rise was measured using a Barnant Scanning Thermocouple (available from Therm-X of California, Hayward, Calif.).

[2] = tested on: Methicillin-resistant Staphylococcus aureus; details: for LOG10 Reduction: 0.005% PHMB vs no PHMB; for LOG10 Reduction / Total CFU Recovered MRSA: 10-minute contact time; for Total CFU Recovered MRSA: 0.005% PHMB, 5% bovine serum albumin soil, n = 2
Experimental: This Example utilized 1.5-milliliter tubes containing a 1-milliliter blend of phosphate-buffered saline (pH 7.2) and 5% (w/v) bovine serum albumin soil. The tubes were placed in electric heat blocks set for 22° C., 30° C., 40° C. and 50° C., respectively. The tubes remained in the electric heat blocks for approximately 10 minutes.
After 10 minutes, 0.005% (by weight) active polyhexamehtylene biguanide (PHMB) (commercially available as Cosmocil® CQ from Arch Biocides, Inc., United Kingdom) was added to two tubes at each temperature level. Duplicate tubes without PHMB at each temperature were also made.
The tubes were then vortexed and Methicillin-resistant Staphylococcus aureus (approximately 1×10^5 colony forming units (CFU)) was then added to each tube. All of the tubes were then placed back into the heat blocks at their respective temperatures.
Following a 10-minute contact time, 0.1 milliliters of each sample was transferred to 0.9 milliliters letheen broth to neutralize the PHMB activity. The letheen samples were then plated in duplicate on Tryptic Soy agar plates using a WASP2 spiral plater (commercially available from Don Whitley Scientific, Ltd., Yorkshire, United Kingdom). The plates were inverted and incubated at 37±2° C. for 48 hours.
After 48 hours, the plates were evaluated using a total plate count to determine the biocidal efficacy of each sample.

Staphylococcus aureus = assay: Biocidal efficacy of magnesium chloride in combination with PHMB, total plate count; type: cell-based; details: 15-minute contact time
Experimental: A 1.5-milliliter tube was prepared using magnesium chloride in water.
Two control samples were also prepared. One control sample was filled with 0.850 milliliters magnesium chloride. A second control sample was prepared by introducing 0.850 milliliters sterile water.
The tubes were then vortexed until an increase in temperature was observed.
0.05 milliliters of 1×10^7 CFU/milliliter culture of Staphylococcus aureus was added to each tube. After a 15-minute contact time, 0.1 milliliters of each tube was transferred into 0.9 milliliters letheen broth. To the broth, 10 milligrams/milliliter sodium thiosulfate was also added. The tubes were again vortexed. After vortexing, 0.1 milliliters of each tube was plated on Tryptic soy agar plates. The plates were inverted and incubated at 37° C. for 24 hours. An inoculum control plate was also plated to determine the concentration of the inoculum
After 24 hours, the plates were evaluated using a total plate count to determine the biocidal efficacy of each sample.

[3] = Heat generation after soaking in de-ionized water; type: physicochemical; details: 0.73 grams added to 7.0 grams de-ionized water, no protective layer; FIG. 6
Experimental: Four samples of the calcium chloride particles including a moisture protective layer were then analyzed for their ability to generate heat after exposure to water. A control sample (calcium chloride) was also tested for heat generating capabilities and compared to the four samples of calcium chloride having a moisture protective layer.
To analyze the samples for heat generation, 0.80 grams of each sample of calcium chloride including a moisture protective layer was added to four separate vials each containing 7.0 grams of de-ionized water and 0.73 grams of the control sample was added to a fifth vial containing 7.0 grams of de-ionized water. Using a J type thermocouple (commercially available from Omega Engineering, Inc., Stamford, Conn.) and a data logger, the temperature of the samples was measured over a period of 180 seconds. The four vials containing the samples of microencapsulated heat delivery vehicle including a moisture protective layer were allowed to remain in the de-ionized water for 0.5 hours, 1.0 hour, 1.5 hours, and 2.0 hours, respectively, at which time the samples were activated by crushing the samples by hand using a metal rod. The temperature of the water in the four vials was measured for a period of 180 seconds after crushing the samples.

[4] = particle size less than 250 micrometers, compared with three other size ranges; 35 wt % in mineral oil added to 7.0 grams de-ionized water; FIG. 4
Experimental: In this example, samples incorporating various size ranges of anhydrous magnesium chloride suspended in mineral oil at 35 wt % were evaluated for their ability to generate heat upon introduction into water.
The four size ranges of anhydrous magnesium chloride evaluated were: (1) 1000-1500 microns; (2) 600-1000 microns; (3) 250-600 microns; and (4) less than 250 microns. To produce the samples of anhydrous magnesium chloride in mineral oil, the various size ranges of anhydrous magnesium chloride powder (Magnesium Interface Inc. (Vancouver, B.C., Canada) were suspended at 35 wt % in mineral oil (available as Drakeol 7 LT NF from Penreco, Dickinson, Tex.). To produce the samples having anhydrous magnesium chloride with size ranges of 1000-1500 microns, 600-1000 microns, and 250-600 microns, the as received anhydrous magnesium chloride powder was hand screened into the size ranges desired and the powders collected. These powders were suspended at 35 wt % in mineral oil using a cowles mixing blade. […]
All four samples were then added to 7.0 grams de-ionized water and the resulting temperature rise was measured using a J type Thermocouple (available from Omega Engineering, Inc., Stamford, Conn.).

[Ca+2].[Cl-].[Cl-] [anhydrous calcium chloride, calcium chloride]
rate of heat generation [1]: highest rate

polyhexamethylene biguanide [PHMB]
difference in efficacy between 22° C. and 50° C. ([2]; 0.005% (by weight) active PHMB): greater than 1.4 LOG10
LOG10 Reduction ([2]; 22° C.): 2.1 LOG10
Total CFU Recovered MRSA ([2]; 22° C.): 3.5 CFU
LOG10 Reduction ([2]; 30° C.): 2.8 LOG10
Total CFU Recovered MRSA ([2]; 30° C.): 2.9 CFU
LOG10 Reduction ([2]; 40° C.): 3.5 LOG10
Total CFU Recovered MRSA ([2]; 40° C.): 2.1 CFU
LOG10 Reduction ([2]; 50° C.): >3.5 LOG10
Total CFU Recovered MRSA ([2]; 50° C.): <2 CFU
LOG10 recovered (Staphylococcus aureus; PHMB 0.00025%, magnesium chloride 0%): 4.8 LOG10

[Ca+2].[Cl-].[Cl-] [Example 11 control sample, calcium chloride]
heat production in water [3]: produced heat immediately upon being introduced into water but only for a short period of time

[Cl-].[Cl-].[Mg+2] [Magnesium Chloride, magnesium chloride]
rate of heat generation [4]: highest rate
LOG10 recovered (Staphylococcus aureus; PHMB 0%, magnesium chloride 50%): 1.9 LOG10
